# Laboratory results: PubChem BioAssay AID449762 (Southern Research Specialized Biocontainment Screening …, 2010)
# Inconclusive results are not listed.
# Tested on: M. tuberculosis H37Rv growth inhibition, 7H9 media
# Experiment: M. tuberculosis growth inhibition, HTS (AID 449762);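 further: bacterial growth assessed after seven days of incubation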
# Settings: not given
row,Structure (SMILES),IC50 [µM]
1,CC(=O)c1ccc(-n2cc(-c3ccc(C(C)(C)C)cc3)[n+]3c2SCCC3)cc1,4.34
2,N/C(Cc1ccc([N+](=O)[O-])cc1)=N\OC(=O)c1ccc2ccccc2c1,22.5
3,COc1ccc(NC(=O)CSC2CCCCC2)cc1,35.2
4,CC(C)(C)NC(=O)C(=O)NNC(=O)c1ccc(C(C)(C)C)cc1,5.71
5,COc1ccc(/C(O)=C/Sc2nnc(Cc3ccccc3)o2)cc1,26.3
6,CCOC(=O)C1=C(C)Nc2nc(SCC(=O)OC)nn2C1c1cc(F)cc(F)c1 (stereo unspecified),5.06
7,COC(=O)c1ccc2c(c1O)C(=O)c1ccccc1C2=O,65.4
8,CCOC(=O)CCCNC(=O)COC(=O)c1cc(Br)c(Br)s1,9.86
9,Nc1c(-c2ccccn2)cnn1-c1nc(-c2ccc(F)cc2)cs1,12.6
10,Cc1cc(C)c2cc(C(=O)Nc3ccc(C)c(F)c3)[nH]c2c1,0.94
11,O=C(CSc1nnnn1-c1ccc2c(c1)OCCO2)OC1CCCCC1,11.9
12,CN(C)C/C=C/C(=O)Nc1cccc(-c2c[nH]c3ncnc(Oc4ccc(NC(=O)CC(=O)Nc5ccc(F)cc5)cc4F)c23)c1,7.38
13,O=C(Oc1c(Cl)cc(Cl)c2cccnc12)c1cccs1,0.89
14,O=C(/C=C/c1ccc([N+](=O)[O-])cc1)NC1CC2CCC1C2 (stereo unspecified),44.6
15,Cc1cccc(C(=O)NNC(=S)NC(=O)c2ccccc2)c1,0.59
16,CNC(=O)COC(=O)c1ccc(-c2nc3ccccc3s2)s1,2.07
17,CN(c1ccccc1)S(=O)(=O)c1cccc(C(=O)NCc2ccccc2CN2CCCC2)c1,48.8
18,Oc1ccc(F)c2cccnc12,5.26
19,O=C(Cc1ccc([N+](=O)[O-])cc1)Nc1cc(C(F)(F)F)cc(C(F)(F)F)c1,2.74
20,Cc1ccc(N/N=C/C=C/c2ccco2)cc1,61.2

row,Structure (SMILES),IC50 [µM]
1,CCCCCCCNC(=O)c1ccc(N2CCC3(CC2)OCCO3)c([N+](=O)[O-])c1,37.9
2,CC(C)Oc1ccc(C(=O)N/N=C/c2ccc(-c3ccc(S(=O)(=O)Nc4ncccn4)cc3)o2)cc1,19.2
3,Cc1ccc2[nH]c(C(=O)NN=C3CCCCC3)c(-c3ccccc3)c2c1,29
4,COc1ccc(/C=N/OCC(=O)OCC(=O)N(C)c2ccccc2)cc1,8.22
5,COc1ccc(C(=O)C[n+]2ccc3c(c2)nc(-c2cc(OC)c(OC)cc2OC)n3C)cc1,10.5
6,COc1cc(C(=O)/C=C/c2cccnc2)c([N+](=O)[O-])cc1OC,5.52
7,CCOC(=O)C1(CCOc2ccccc2)CCN(Cc2cccc(-n3cccn3)c2)CC1,25.4
8,Cc1cc(Nc2ccccc2)c2c([N+](=O)[O-])ccc(C)c2n1,94.4
9,CCCOc1ccc(C(=O)NC(=S)NCc2cccnc2)cc1,21.2
10,CC(C)NC(=S)N/N=C/c1cc(Br)ccc1O,6.79
11,Cn1nc(-c2ccccc2F)c2cc(C(=O)Nc3ccc4c(c3)OCCO4)sc21,17.7
12,NNC(=S)Nc1ccccc1Cl,24.4
13,O=C(CCl)Nc1cn(-c2ccccc2)nc1-c1ccccc1,< 0.2
14,CCCCS(=O)(=O)/C=C\C=C/S(=O)(=O)CCCC,1.35
15,O=c1cc2[nH]c3ccccc3c(=O)n2nc1-c1ccccc1,6.91
16,CC(C)CC[n+]1ccccc1/C=C/c1ccc(N(C)C)cc1,5.3
17,CN1CCN(CC(=O)N2CCn3c4c(c5cc(C6CCCCC6)ccc53)CCCC42)CC1 (stereo unspecified),21.7
18,CCCCCCCCNC(C)C(O)c1ccc(SC(C)C)cc1 (stereo unspecified),22.5
19,CS(=O)(=O)c1ccc([C@@H](O)[C@@H](CF)NC(=O)C(Cl)Cl)cc1,10.1
20,COc1ccc(C(C)=O)cc1COC(=O)c1ccc2ccccc2n1,27.8

row,Structure (SMILES),IC50 [µM]
1,CN1CCN(c2cc(-c3ccccc3)nc3cc(-c4ccc(F)cc4)nn23)CC1,11.4
2,CCOC(=O)Oc1c(OC)cc(C(=O)O[C@@H]2C[C@@H]3CN4CCc5c([nH]c6cc(OC)ccc56)[C@H]4C[C@@H]3[C@H](C(=O)OC)[C@H]2OC)cc1OC,19.7
3,O=C(c1ccc([N+](=O)[O-])s1)N1CCN(c2ccc(C(F)(F)F)cn2)CC1,< 0.2
4,O=C(/C=C/c1ccc(O)cc1)c1ccc(NC2=C(N3CCCCC3)C(=O)c3ccccc3C2=O)cc1,12
5,CCN(CC)CCNC(=O)c1ccc(NC(=O)c2cn(-c3ccccc3)nc2-c2cccs2)cc1,19
6,Cc1cc2cc(CNC(=O)NC3CCCCC3)ccc2[nH]1,23.3
7,CC(C)OC(=O)c1ccc(NC(=S)NC(=O)c2cncc(Br)c2)cc1,52.4
8,C[C@@H]1CN([C@H](C)CO)C(=O)c2cc(NC(=O)Nc3ccc(C(F)(F)F)cc3)ccc2O[C@H]1CN(C)S(=O)(=O)c1cccs1,22.6
9,COC(=O)c1c(NC(=O)CCl)sc(C(=O)N2CCOCC2)c1C,2.19
10,COc1ccccc1C(=O)NNC(=O)C(=O)NCc1ccccc1,10.6
11,Cc1c(CN(C)C)c2c(n1Cc1ccccc1)C(=O)c1ccc(Br)cc1-2,17.6
12,O=c1[nH]c(CN2CC=C(c3ccccc3)CC2)nc2cc(C(F)(F)F)ccc12,69.4
13,CCC(=O)N1c2ccc(S(=O)(=O)CCC(=O)N3CCn4c3nc3ccccc34)cc2CC1C (stereo unspecified),9.28
14,CC(C)Nc1nc(NC(C)C)nc(N(C)N)n1,5.75
15,c1ccc2c(c1)ncn2CCCCOc1ccc2c(c1)CCC2,22.8
16,CCOC(=O)CSc1ncnc2c1sc1nc(N3CCOCC3)c3c(c12)CCCC3,23.3
17,c1cc2c3c(cccc3c1)NC1(CCC3(CC1)Nc1cccc4cccc(c14)N3)N2,65.5
18,COc1ccc(-c2ccnc3nc(N4CCN(c5ccccc5)CC4)nn23)cc1,36.4

# Same assay, conditions: measured here: IC90 growth inhibition
row,Structure (SMILES),IC90 [µM]
1,CC(=O)c1ccc(-n2cc(-c3ccc(C(C)(C)C)cc3)[n+]3c2SCCC3)cc1,29.5
2,N/C(Cc1ccc([N+](=O)[O-])cc1)=N\OC(=O)c1ccc2ccccc2c1,> 100
3,COc1ccc(NC(=O)CSC2CCCCC2)cc1,> 100
